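Cells were grown in 96-well plates and exposed to each compound for 48 hours at five concentrations; endpoints were interpolated linearly between bracketing concentrations, or set to the highest concentration if not reached. At the GI50, growth is halved.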 Calls of active or inactive are those of the source. Rule as the data show it: active = GI50 up to about 1.1 µM and inactive = higher.
What was measured:
Experiment in all cases: NCI-60 cell line screen, 48 h
[1] = tested on: SW-620
[2] = tested on: OVCAR-3
[3] = tested on: NCI-H226
[4] = tested on: SNB-75
[5] = tested on: LOX IMVI
[6] = tested on: MCF7
[7] = tested on: SK-OV-3
[8] = tested on: RXF 393
[9] = tested on: UACC-62
[10] = tested on: NCI-H23
[11] = tested on: EKVX
[12] = tested on: HCT-15
[13] = tested on: IGROV-1
[14] = tested on: SF-268
[15] = tested on: HOP-62
[16] = tested on: OVCAR-8
[17] = tested on: PC-3
[18] = tested on: MDA-N
[19] = tested on: M14
[20] = tested on: SNB-19

SMILES	GI50 [1]	GI50 [2]	GI50 [3]	GI50 [4]	GI50 [5]	GI50 [6]	GI50 [7]	GI50 [8]	GI50 [9]	GI50 [10]	GI50 [11]	GI50 [12]	GI50 [13]	GI50 [14]	GI50 [15]	GI50 [16]	GI50 [17]	GI50 [18]	GI50 [19]	GI50 [20]
O=C(O)CCNCC(=O)O	> 100 µM (inactive)	> 100 µM (inactive)	> 100 µM (inactive)	> 100 µM (inactive)	> 100 µM (inactive)	> 100 µM (inactive)	> 100 µM (inactive)	> 100 µM (inactive)	> 100 µM (inactive)	> 100 µM (inactive)	> 100 µM (inactive)	> 100 µM	> 100 µM (inactive)	> 100 µM (inactive)	> 100 µM (inactive)	> 100 µM (inactive)	> 100 µM (inactive)	> 100 µM (inactive)	> 100 µM (inactive)	> 100 µM (inactive)
O=[N+]([O-])c1ccc(/C(=N/c2ccccc2)SS/C(=N\c2ccccc2)c2ccc([N+](=O)[O-])o2)o1	0.425 µM (active)	1.53 µM (inactive)	18.7 µM (inactive)	1.66 µM (inactive)	1.49 µM (inactive)	0.444 µM (active)	3.86 µM (inactive)	1.75 µM (inactive)	1.61 µM (inactive)	1.6 µM (inactive)	1.77 µM (inactive)	0.552 µM	1.6 µM (inactive)	1.8 µM (inactive)	2.17 µM (inactive)	1.52 µM (inactive)	1.7 µM (inactive)	2.72 µM (inactive)	1.98 µM (inactive)	1.84 µM (inactive)
COc1ccc(-c2cc(-c3ccc(Nc4ccnc5cc(Cl)ccc45)cc3)[nH]c(=O)c2C#N)c2ccccc12	3.51 µM (inactive)	2.18 µM (inactive)	> 100 µM (inactive)	3.2 µM (inactive)	1.36 µM (inactive)	1.92 µM (inactive)	20.9 µM (inactive)	5.05 µM (inactive)	19.5 µM (inactive)	20.3 µM (inactive)	> 77.1 µM (inactive)	8.45 µM	5.26 µM (inactive)	12.7 µM (inactive)	14.5 µM (inactive)	2.3 µM (inactive)	19.5 µM (inactive)	2.01 µM (inactive)	2.03 µM (inactive)	3.39 µM (inactive)
CC1=CC23C(COC(=O)C24CO4)C(C(=O)O)=CC3C1C (stereo not given)	18.2 µM (inactive)	32.3 µM (inactive)	15.6 µM (inactive)	17.7 µM (inactive)	17 µM (inactive)	35.6 µM (inactive)	4.65 µM (inactive)	3.55 µM (inactive)	12.8 µM (inactive)	27.1 µM (inactive)	40.4 µM (inactive)	24.5 µM	24.1 µM (inactive)	4.93 µM (inactive)	14.1 µM (inactive)	15.9 µM (inactive)	11.9 µM (inactive)	24 µM (inactive)	7.55 µM (inactive)	5.33 µM (inactive)
CC1=C(/C=C/C(C)=C/C=C/C(C)=C/C(=O)OCC2OC(n3cc(F)c(=O)[nH]c3=O)CC2OC(=O)/C=C(C)/C=C/C=C(C)/C=C/C2=C(C)CCCC2(C)C)C(C)(C)CCC1 (stereo not given)	12.1 µM (inactive)	9.75 µM (inactive)	37.8 µM (inactive)	10.4 µM (inactive)	3.48 µM (inactive)	0.225 µM (active)	30.5 µM (inactive)	22.3 µM (inactive)	0.83 µM (active)	10.4 µM (inactive)	> 54.3 µM (inactive)	13.2 µM	6.32 µM (inactive)	0.618 µM (active)	0.306 µM (active)	1.71 µM (inactive)	8.95 µM (inactive)	10.4 µM (inactive)	3.81 µM (inactive)	3.1 µM (inactive)
OCC(O)CNc1ncnc2ccccc12 (stereo not given)	> 100 µM (inactive)	> 100 µM (inactive)	> 100 µM (inactive)	> 100 µM (inactive)	> 100 µM (inactive)	> 100 µM (inactive)	> 100 µM (inactive)	> 100 µM (inactive)	> 100 µM (inactive)	> 100 µM (inactive)	> 100 µM (inactive)	> 100 µM	> 100 µM (inactive)	> 100 µM (inactive)	> 100 µM (inactive)	> 100 µM (inactive)	> 100 µM (inactive)	> 100 µM (inactive)	> 100 µM (inactive)	> 100 µM (inactive)
CC(C)NC(=O)OCc1c(COC(=O)NC(C)C)c(-c2ccc[n+](COC(=O)CC(C)(C)C)c2)n2c1CCC2	> 100 µM (inactive)	> 100 µM (inactive)	> 100 µM (inactive)	67.6 µM (inactive)	78.3 µM (inactive)	70.1 µM (inactive)	> 100 µM (inactive)	38.7 µM (inactive)	39.9 µM (inactive)	48.6 µM (inactive)	> 100 µM (inactive)	> 100 µM	> 100 µM (inactive)	54 µM (inactive)	56.6 µM (inactive)	81.3 µM (inactive)	58.5 µM (inactive)	> 100 µM (inactive)	> 100 µM (inactive)	> 100 µM (inactive)
OC(Cc1cnnc2ccccc12)C(Cl)(Cl)Cl (stereo not given)	> 10 µM (inactive)	> 10 µM (inactive)	> 10 µM (inactive)	> 10 µM (inactive)	> 10 µM (inactive)	> 10 µM (inactive)	> 10 µM (inactive)	> 10 µM (inactive)	> 10 µM (inactive)	> 10 µM (inactive)	> 10 µM (inactive)	> 10 µM	> 10 µM (inactive)	> 10 µM (inactive)	> 10 µM (inactive)	> 10 µM (inactive)	> 10 µM (inactive)	> 10 µM (inactive)	> 10 µM (inactive)	> 10 µM (inactive)
CC(C)CCC1(CCN)C(=O)NC(=O)NC1=O	> 100 µM (inactive)	> 100 µM (inactive)	> 100 µM (inactive)	> 100 µM (inactive)	> 100 µM (inactive)	> 100 µM (inactive)	> 100 µM (inactive)	> 100 µM (inactive)	> 100 µM (inactive)	> 100 µM (inactive)	> 100 µM (inactive)	> 100 µM	> 100 µM (inactive)	> 100 µM (inactive)	> 100 µM (inactive)	> 100 µM (inactive)	> 100 µM (inactive)	> 100 µM (inactive)	> 100 µM (inactive)	> 100 µM (inactive)
CC(=O)Nc1ccc(C(=O)N[C@@H]2C(=O)N3[C@@H]2SC(C)(C)[C@@H]3C(=O)O)cn1	> 100 µM (inactive)	> 100 µM (inactive)	> 100 µM (inactive)	> 100 µM (inactive)	> 100 µM (inactive)	> 100 µM (inactive)	> 100 µM (inactive)	> 100 µM (inactive)	> 100 µM (inactive)	> 100 µM (inactive)	> 100 µM (inactive)	> 100 µM	> 100 µM (inactive)	> 100 µM (inactive)	> 100 µM (inactive)	> 100 µM (inactive)	> 100 µM (inactive)	> 100 µM (inactive)	> 100 µM (inactive)	> 100 µM (inactive)
CCC1C(c2cc(OC)c(OC)c(OC)c2)c2cc3c(cc2OC1N1CCCC1)OCO3 (stereo not given)	1.21 µM (inactive)	1.45 µM (inactive)	3.08 µM (inactive)	2.46 µM (inactive)	2.57 µM (inactive)	0.542 µM (active)	3.42 µM (inactive)	1.45 µM (inactive)	1.31 µM (inactive)	4.46 µM (inactive)	7.28 µM (inactive)	0.984 µM	2.62 µM (inactive)	4.58 µM (inactive)	2.82 µM (inactive)	4.07 µM (inactive)	1.48 µM (inactive)	0.231 µM (active)	1.75 µM (inactive)	2.74 µM (inactive)
O=C(O)c1ccccc1Sc1ccccc1[N+](=O)[O-]	> 100 µM (inactive)	> 100 µM (inactive)	> 100 µM (inactive)	76.9 µM (inactive)	> 100 µM (inactive)	> 100 µM (inactive)	> 100 µM (inactive)	> 100 µM (inactive)	> 100 µM (inactive)	> 100 µM (inactive)	> 100 µM (inactive)	> 100 µM	> 100 µM (inactive)	> 100 µM (inactive)	> 100 µM (inactive)	> 100 µM (inactive)	> 100 µM (inactive)	> 100 µM (inactive)	> 100 µM (inactive)	> 100 µM (inactive)
O=C(/C=C/c1ccccc1)CCN1CCN(CCC(=O)/C=C/c2ccccc2)CC1	4.67 µM (inactive)	16.8 µM (inactive)	16.2 µM (inactive)	15.8 µM (inactive)	2.38 µM (inactive)	5.81 µM (inactive)	13.5 µM (inactive)	13.7 µM (inactive)	16.3 µM (inactive)	16 µM (inactive)	18.6 µM (inactive)	10.9 µM	18.2 µM (inactive)	13.8 µM (inactive)	22.6 µM (inactive)	16.3 µM (inactive)	16.8 µM (inactive)	2.19 µM (inactive)	11.7 µM (inactive)	17.6 µM (inactive)
CC(=O)O[C@H]1C(=O)[C@@]2(C)[C@H]([C@H](OC(=O)C3CCCCC3)[C@]3(O)C[C@H](OC(=O)[C@H](O)[C@@H](NC(=O)C4CCCCC4)C4CCCCC4)C(C)=C1C3(C)C)[C@]1(OC(C)=O)CO[C@@H]1C[C@@H]2O	0.01 µM (active)	0.00386 µM (active)	0.0311 µM (active)	0.0508 µM (active)	0.0272 µM (active)	0.00569 µM (active)	0.029 µM (active)	0.0407 µM (active)	0.0163 µM (active)	< 0.0132 µM (active)	5.61 µM (inactive)	0.143 µM	0.027 µM (active)	0.408 µM (active)	0.0222 µM (active)	0.0228 µM (active)	0.016 µM (active)	0.0025 µM (active)	0.00889 µM (active)	0.057 µM (active)
